Where two headings read alike, the source gives them in different places.
How the values were obtained:
GalfNeoLect = GalfNeoLect (Streptomyces sp. JHA19, UniProt A0A0K2SRV3, E464Q); test: Competitive inhibition assay of GalfNGP binding to immobilised GalfNeoLect; set-up: species or system Streptomyces sp. strain JHA19; conditions: for IC50: biotinylated GalfNGP (2 μg/mL) as tracer, read-out: IC50 of inhibitors towards GalfNeoLect; for inhibition of GalfNGP binding to immobilised GalfNeoLect: result in words
GalfNeoLect, sequence (A0A0K2SRV3 45-786 E464Q limits assumed): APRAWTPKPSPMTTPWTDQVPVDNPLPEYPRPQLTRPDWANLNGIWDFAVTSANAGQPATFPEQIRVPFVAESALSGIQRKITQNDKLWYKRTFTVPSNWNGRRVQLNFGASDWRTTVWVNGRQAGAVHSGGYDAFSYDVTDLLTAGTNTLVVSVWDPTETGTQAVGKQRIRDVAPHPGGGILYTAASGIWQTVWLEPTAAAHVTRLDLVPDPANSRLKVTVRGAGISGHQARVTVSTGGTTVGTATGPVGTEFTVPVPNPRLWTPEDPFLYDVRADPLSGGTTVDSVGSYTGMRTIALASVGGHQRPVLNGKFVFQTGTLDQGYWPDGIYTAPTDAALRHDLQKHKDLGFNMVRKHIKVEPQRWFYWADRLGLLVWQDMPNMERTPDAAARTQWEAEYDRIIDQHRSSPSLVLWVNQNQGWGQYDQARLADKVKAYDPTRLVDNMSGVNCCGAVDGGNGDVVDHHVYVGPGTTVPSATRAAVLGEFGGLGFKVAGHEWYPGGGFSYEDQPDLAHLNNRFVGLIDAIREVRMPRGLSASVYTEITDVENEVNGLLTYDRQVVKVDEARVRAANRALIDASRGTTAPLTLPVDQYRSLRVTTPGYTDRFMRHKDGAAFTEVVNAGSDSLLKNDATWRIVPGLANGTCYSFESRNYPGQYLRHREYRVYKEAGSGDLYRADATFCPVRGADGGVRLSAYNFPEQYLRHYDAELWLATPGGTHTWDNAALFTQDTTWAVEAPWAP
Procedure: In the competitive inhibition assay, we investigated the ability of selected pNP, azido, or thyoaryl monosaccharide substrates (Galf-N3, Galf-thioaryl, pNP-β-D-Galf, pNP-β-D-Galp, pNP-α-L-Araf, pNP-β-D-Ribf) (Figure 5) for their ability to inhibit the binding of GalfNGP to immobilised GalfNeoLect.
(§1) The interaction profiles of each compound were determined through an indirect method, based on the inhibition by the compound of the interaction between a specific coupled lectin–glycan (a neoglycoprotein labelled with biotin and used as a tracer). Briefly, a mix of biotinylated GalfNGP (fixed concentration) and the corresponding compounds (in a range of concentrations), prepared in PBS supplemented with 1 mM CaCl2 and 0.5 mM MgCl2, are deposed in each well (50 μL each) in triplicate and incubated for 2 h at room temperature. After washing with PBS buffer, the conjugate streptavidin-DTAF was added (50 μL) and incubated for 30 min more. The plate was washed again with PBS. Finally, 100 μL of PBS was added for the readout of the fluorescent plate, performed with a fluorescence reader (λex = 485 nm, λem = 530 nm, Fluostar OPTIMA, BMG LABTECH, France). The signal intensity was inversely correlated with the capacity of the compound to be recognised by the lectin and expressed as inhibition percentage with comparison with the corresponding biotinylated GalfNGP alone.
Aspergillus brasiliensis (ATCC 16404) culture was inoculated on Sabouraud agar plates and incubated at 37 °C for 4 days until the formation of a black mycelium mat, which contains spores. Fresh spores were harvested with a sterile plastic inoculation loop by rubbing the black mycelium mat and dispersed in physiological serum solution (0.8% NaCl, 10 mL). The spore solution was resuspended well by using a vortex to prevent aggregation and was calibrated using a Malassez counting chamber to 5.10^6 spores/mL. Spores’ solutions (5.10^6 spores/mL) were used directly in inhibition assays with GalfNeoLect, following the same protocol describe above (Section 4.8).

wild-type Galf-ase [1] = target: T1, wild-type Galf-ase (Streptomyces sp. JHA19, UniProt A0A0K2SRV3); test: Competitive inhibition assay of GalfNGP binding to wild-type Galf-ase; set-up: species or system Streptomyces sp. strain JHA19; conditions: biotinylated GalfNGP (2 μg/mL) as tracer; read-out: IC50 of inhibitors towards wild-type Galf-ase
Procedure: Indeed, Table 6 summarises the 50% inhibitory concentrations (IC50) obtained from all compounds studied.
as §1
Target sequence in this assay (A0A0K2SRV3 45-786 limits assumed): as the sequence (A0A0K2SRV3 45-786 E464Q limits assumed) above, with Q420E counted along it

E464C = system: T2, E464C; test: Absorbance at 405 nm of p-nitrophenol released by hydrolysis of pNP-β-D-Galf (0.01-5 mM), citrate/phosphate buffer pH 4.5, 37 °C, 20 min, stopped with Na2CO3.; type: biochemical; conditions: n = 3
T2 construct: pET-28a(+) construct, expressed in E. coli Rosetta (DE3), Ni-NTA purified
Procedure: (§2) In analysing the hydrolitic activity and the hydrolysis rate-limiting steps of the three Galf-ase mutant variants E464S, E464C, and E464Q, the Michaelis–Menten kinetic parameters were determined under the similar conditions used for wild-type enzyme. […] Altogether, the obtained values are in the same order of magnitude. […] The significant decrease in catalytic efficiency by a factor of 3000–1400 times for E464S and E464C mutants, respectively, and 56 times lower for E464Q mutant is observed. These kinetic observations are in accordance with the other data obtained in similar assays used for the identification of the catalytic residues in retaining and inverting several GHs. The Galf-ase mutant variant E464Q featured only a minor change in the KM value, 166 µM compared to 250 µM, of the wild-type Galf-ase and, given the advantage that, contrary to other mutant variants, it was purified in sufficient quantities (0.3 mg/L), it was selected as a promising candidate to be tested as a novel Galf-binding lectin (GalfNeoLect). Further in the article, the E464Q mutant variant is addressed as GalfNeoLect.
(§3) Kinetic parameters were determined with pNP-β-D-Galf as a substrate in different concentration ranges (0.01–5 mM). The reaction (200 μL), containing buffer (20 μL; 0.1 M citric acid/0.2 M Na2HPO4 pH 4.5) and water, if required, was started by addition of the enzyme (2 μL; 0.13 mg/mL) and, after 20 min of incubation at 37 °C (water bath), the reaction was terminated (100 μL; 1 M Na2CO3) and absorbance (405 nm) of released pNP was measured. All the reactions were assayed in triplicate and absorbance values were corrected for the spontaneous hydrolysis of the substrate. The kinetic parameters (KM, Vm, kcat) were calculated using GraphPad Prism 5 software (GraphPad Software, San Diego, CA, USA).
(§4) Figure S4. Michaelis–-Menten plot of pNP-β-D-Galf hydrolysis reaction catalysed by Galf-ase E464S, E464C, and
(§5) E464Q mutant variants. Mean values and SD error bars were calculated from three independent experiments
(§6) (*except E464C) and from a single protein preparation. […]

E464Q (GalfNeoLect) = system: T3, E464Q (GalfNeoLect); test: as above; type: biochemical; conditions: n = 3
T3 construct: pET-28a(+) construct, expressed in E. coli Rosetta (DE3), Ni-NTA purified
Procedure: as §2, §3, §4, §5, §6

E464S = system: T4, E464S; test: as above; type: biochemical; conditions: n = 3
T4 construct: pET-28a(+) construct, expressed in E. coli Rosetta (DE3), Ni-NTA purified
Procedure: as §2, §3, §4, §5, §6

[2] = system: T5, Galf-ase (wild-type Galf-ase; E464); test: as above; type: biochemical; conditions: n = 3; cited from earlier work
T5 construct: pET-28a(+) construct, expressed in E. coli Rosetta (DE3), Ni-NTA purified
Procedure: as §2, with “Further in the article, the E464Q mutant variant is addressed as GalfNeoLect.” left out
Kinetic parameters were determined with pNP-β-D-Galf as a substrate in different concentration ranges (0.01–5 mM). […] All the reactions were assayed in triplicate and absorbance values were corrected for the spontaneous hydrolysis of the substrate. The kinetic parameters (KM, Vm, kcat) were calculated using GraphPad Prism 5 software (GraphPad Software, San Diego, CA, USA). […]

wild-type Galf-ase [3] = target: T1, wild-type Galf-ase; test: Direct binding assay (ELLA) of biotinylated neoglycoproteins to immobilised wild-type Galf-ase; set-up: species or system Streptomyces sp. strain JHA19; conditions: read-out: BC50 (concentration to obtain 50% GalfNGP binding)
From the text: To study and evaluate the binding interactions of Galf-ase E464Q mutant variant, as novel Galf-binding lectin (GalfNeoLect), we synthetised novel neoglycoproteins (NGPs) to serve as the Galf-bearing scaffold. Bovine serum albumin (BSA), a well-known, naturally unglycosylated protein that has up to 60 primary amino functional groups available for click-conjugation chemistry, has been functionalised with Galf motifs. Galf-N3, involved in the corresponding click reaction with propargyl functionalised BSA, was obtained from the corresponding per-O-acetyl galactofuranose using TMSN3 as a source of azide and TMSOTf as the Lewis acid (see ESI for chemical synthesis). After acetyl cleavage, the resulting/expected Galf-conjugated BSA neoglycoprotein (GalfNGP) synthesis has been first characterised for its functionality by direct binding assay with human Intelectin-1 (hIntL-1), wild-type Galf-ase, and GalfNeoLect. As hIntL-1 has been reported to bind furanose residues (five-membered-ring saccharide isomers), including a β-Galf–containing disaccharide, it served as a positive control for the evaluation of newly synthetised GalfNGP. […]
The assays were performed according to GlycoDiag’s protocol, already described in the literature. […] Finally, 100 μL of PBS was added for reading the plate using a fluorescence reader (λex = 485 nm, λem = 530 nm, Fluostar OPTIMA, BMG LABTECH, France). […]

Row | Compound | IC50 (GalfNeoLect) | IC50 (wild-type Galf-ase [1]) | inhibition of GalfNGP binding to immobilised GalfNeoLect (GalfNeoLect) | further results
1 | [N-]=[N+]=N[C@@H]1O[C@@H]([C@H](O)CO)[C@H](O)[C@H]1O [Galf-N3, β-D-galactofuranosyl azide] | 1390 µM | 590 µM | – | –
2 | Cc1ccc(S[C@@H]2O[C@@H]([C@H](O)CO)[C@H](O)[C@H]2O)cc1 [Galf-thioaryl] | 180 µM | 180 µM | – | IC50 (GalfNeoLect; listed as Galf-Thioaryl): 150 µM
3 | O=[N+]([O-])c1ccc(O[C@@H]2O[C@@H](CO)[C@H](O)[C@H]2O)cc1 [pNP-α-L-Araf] | – | – | no inhibition | –
4 | O=[N+]([O-])c1ccc(O[C@@H]2O[C@@H]([C@H](O)CO)[C@H](O)[C@H]2O)cc1 [pNP-β-D-Galf, p-nitrophenyl β-D-galactofuranoside] | – | – | – | Km (E464C): 170 µM; Km (E464Q (GalfNeoLect)): 166 µM; Km (E464S): 36 µM; Km [2]: 250 µM
5 | O=[N+]([O-])c1ccc(O[C@@H]2O[C@@H]([C@H](O)CO)[C@H](O)[C@H]2O)cc1 [pNP-β-D-Galf] | 1140 µM | 560 µM | – | –
6 | O=[N+]([O-])c1ccc(O[C@@H]2O[C@H](CO)[C@H](O)[C@H](O)[C@H]2O)cc1 [pNP-β-D-Galp] | – | – | no inhibition | –
7 | O=[N+]([O-])c1ccc(OC2OC(CO)C(O)C2O)cc1 [pNP-β-D-Ribf] | – | – | no inhibition | –
8 | GalfNGP: Galf-conjugated bovine serum albumin neoglycoprotein carrying multivalent Galf units | – | – | – | EC50 (wild-type Galf-ase [3]): 0.024 µM

Reference: publication PMC11084152, “Galf-Specific Neolectins: Towards Promising Diagnostic Tools” (International Journal of Molecular Sciences, 2024)
